Reference: patent US8143254B2, “Methods for modulating ion channels” (Cornell Research Foundation, Inc., priority 2005, dated 2012)
Changes are numbered by the printed parent chain. Values joined by “and” are separate entries in the source; they are usually repeats but may differ in a detail not shown here. Equal entries are not always repeated. Each block holds one compound with its values, some of them ahead of it.

How the values were obtained:
Format in all cases: cell-based
[1] = molecular target: T1, Kv2.1 channels expressed in CHO cells (Rattus norvegicus, UniProt P15387); test: Whole-cell voltage clamp of CHO cells transfected with Kv2.1; details: 20 mM, 0 mV
T1 construct: expressed in transfected cells; host or cells: CHO cells (transient, co-transfected with GFP plasmid)
T1 sequence (P15387 1-857): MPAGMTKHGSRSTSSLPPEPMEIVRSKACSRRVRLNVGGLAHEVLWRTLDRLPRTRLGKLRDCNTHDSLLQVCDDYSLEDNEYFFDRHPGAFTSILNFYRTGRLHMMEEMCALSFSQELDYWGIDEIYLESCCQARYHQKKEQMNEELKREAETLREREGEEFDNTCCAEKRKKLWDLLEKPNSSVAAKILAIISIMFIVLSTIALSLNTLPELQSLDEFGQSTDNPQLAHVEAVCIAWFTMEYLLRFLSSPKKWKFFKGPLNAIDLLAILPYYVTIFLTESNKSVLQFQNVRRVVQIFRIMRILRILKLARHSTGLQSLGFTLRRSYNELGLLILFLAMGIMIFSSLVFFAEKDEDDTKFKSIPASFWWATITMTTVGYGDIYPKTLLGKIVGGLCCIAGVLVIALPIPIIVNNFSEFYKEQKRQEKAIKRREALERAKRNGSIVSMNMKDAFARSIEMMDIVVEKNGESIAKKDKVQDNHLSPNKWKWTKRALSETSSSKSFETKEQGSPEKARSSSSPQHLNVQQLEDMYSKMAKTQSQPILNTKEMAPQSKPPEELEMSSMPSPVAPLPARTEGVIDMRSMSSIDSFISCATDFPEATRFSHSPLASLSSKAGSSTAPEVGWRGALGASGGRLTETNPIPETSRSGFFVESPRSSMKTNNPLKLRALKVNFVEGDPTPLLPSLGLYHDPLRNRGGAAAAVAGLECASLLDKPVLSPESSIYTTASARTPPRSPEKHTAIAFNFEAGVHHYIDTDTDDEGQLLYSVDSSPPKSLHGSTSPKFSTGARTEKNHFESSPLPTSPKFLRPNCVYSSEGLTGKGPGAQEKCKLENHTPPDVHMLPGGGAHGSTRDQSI
Text: (§1) Kv2.1 mutants were constructed using the QuickChange Multi Site-Directed Mutagenesis Kit (Stratagene, La Jolla, Calif.). Mutant Kv2.1 genes (in the pGA1 oocyte expression vector for oocyte expression) were sequenced in their entirety to confirm appropriate mutations and check for inadvertent mutations, and then subcloned into a wild-type pGA1 backbone. For oocyte expression, Kv3.4 was in pBF1, Kv4.2 was in pRAT. cRNA transcripts were produced from SacII-linearized (Kv2.1), Mlullinearized (Kv3.4) and Not1-linearized (Kv4.2) DNA templates using the T3 (Kv2.1), SP6 (Kv3.4) and T7 (Kv4.2) mMessage mMachine kits (Ambion, Austin, Tex.). cRNA was quantified by spectrophotometry and its size integrity verified by gel electophoresis. Defolliculated stage V and VI Xenopus laevis oocytes (purchased from Nasco, Grand Island, N.Y.) were injected with 5 ng of cRNA encoding Kv2.1, Kv3.4 or Kv4.2. Chinese Hamster Ovary (CHO) cells were transfected with 0.25 μg Kv2.1 cDNA, 2 μg blank plasmid and 2 μg Green fluorescent Protein in pBOB using Supetfect transfection reagent (Qiagen) 24 hours before whole-cell voltage clamp studies.
For whole-cell voltage clamp studies of CHO cells, bath solution was (in mM): 135 NaCl, 5 KCl, 1.2 MgCl2, 5 HEPES, 2.5 CaCl2, and 10 D-glucose, pH 7.4. Pipettes were 3-5 MQ resistance when filled with intracellular solution containing (in mM): 10 NaCl, 117 KCl, 2 MgCl2, 11 HEPES, 11 EGTA, and 1 CaCl2, pH 7.2. For experiments with extracellular drug application, cells were held at −80 mV and subjected to 2 sec test pulses […] every 30 s. Whole-cell patch clamp recordings were performed at 22-25° C. using an IX50 inverted microscope equipped with epifluorescence optics for GFP detection (Olympus), a Multiclamp 700 A Amplifier, a Digidata 1300 Analogue/Digital converter and pClamp9 software (Axon Instruments). Leak and liquid junction potentials (<4 mV) were not compensated for when generating current-voltage relationships. For intracellular drug application, the tip of the recording electrode was first filled with drug-free intracellular solution, the electrode was then back-filled with intracellular solution containing TEA (20 mM), TA279 (5 mM) or JC638.2α (0.5 mM). Cells were held at −80 mV and subjected to 2 sec test pulses from −60 mV to +60 mV in 10 mV increments, followed by a 1 sec tail pulse to −30 mV. After an initial recording which we denoted time 0, a second recording was performed after 5 minutes.
Data analysis: Current-voltage relationships were obtained by measuring peak current during depolarizing pulses. Inhibition constants for DABCO blockers were calculated after generating a dose response curve by fitting with a logistic dose-response function y=A2+[A1−A2/1+(x/x0)^p], where A1 is the maximum response plateau, A2 is the minimum response plateau, x is drug concentrator, x0 is the IC50, and p the Hill slope. Data analysis was performed using CLAMPFIT 9 (Axon Instruments, Foster City, Calif.) and tabulated in Excel 5.0. Graphs were generated using Origin 6.1. Data are expressed as mean±SEM, with n specifying the number of independent experiments. Statistical significance was assessed by one-way ANOVA with p<0.05 being indicative of significance.

Δ1-28 Kv3.4 channels = molecular target: T2, Δ1-28 Kv3.4 channels (Homo sapiens, UniProt Q03721); test: TEVC current-voltage relationship of Δ1-28 Kv3.4 in Xenopus oocytes; details: 1 mM
T2 construct: expressed in transfected cells; host or cells: Xenopus oocytes (cRNA injection)
T2 sequence (Q03721 29-635): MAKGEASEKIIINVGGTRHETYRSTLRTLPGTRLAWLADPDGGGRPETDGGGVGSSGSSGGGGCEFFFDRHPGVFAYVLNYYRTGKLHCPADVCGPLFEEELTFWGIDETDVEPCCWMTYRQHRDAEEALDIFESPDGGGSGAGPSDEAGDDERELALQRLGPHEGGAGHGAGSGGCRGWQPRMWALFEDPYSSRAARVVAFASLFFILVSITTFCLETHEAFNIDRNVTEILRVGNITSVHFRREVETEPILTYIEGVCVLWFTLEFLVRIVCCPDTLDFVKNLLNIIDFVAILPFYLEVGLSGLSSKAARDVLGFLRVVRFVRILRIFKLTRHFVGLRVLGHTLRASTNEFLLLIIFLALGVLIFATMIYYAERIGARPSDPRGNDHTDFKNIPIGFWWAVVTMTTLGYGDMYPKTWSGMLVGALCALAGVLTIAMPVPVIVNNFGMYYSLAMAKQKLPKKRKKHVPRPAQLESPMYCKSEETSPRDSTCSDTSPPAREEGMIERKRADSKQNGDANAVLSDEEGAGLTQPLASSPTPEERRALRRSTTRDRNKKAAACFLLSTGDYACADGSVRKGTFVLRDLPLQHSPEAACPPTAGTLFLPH
Procedure: FIG. 6. Opening and block of Kv3.4 by two didabco compounds show voltage-dependency. Normalized I/V relationship for Δ1-28 Kv3.4 currents in oocytes in the absence (control) or presence as indicated of 1 mM JC279.3a or JC638.2a. Peak currents during 2 s pulses to voltages between −80 and +60 mV (protocol upper left insert) were recorded, before and after drug was washed in during successive 0.1 Hz, 2 s pulses from −80 to 0 mV until equilibrium block or opening was observed. Points are means from n=3-16 oocytes; error bars indicate SEM.
Whole-cell two-electrode voltage-clamp (TEVC) recordings were performed on X laevis oocytes expressing cloned Kv2.1, Kv3.4 or Kv4.2 using a Warner OC-725C amplifier and pClamp9 (Axon Instruments, Foster City, Calif.) software. Oocytes were bathed in a small-volume Warner oocyte bath and viewed with a Fisher dissection microscope. Bath solution for whole-cell oocyte recordings was (in mM): 96 NaCl, 4 KCl, 0.7 MgCl2, 1 CaCl2, 10 HEPES (pH 7.4); whole-cell oocyte TEVC pipettes were of 0.2-2 M resistance when filled with 3 M KCl. Experiments were performed 24-48 hours after cRNA injection. For assessment of current-voltage relationships in the absence or presence of dabco derivatives, oocytes were held at −80 mV, stepped for 2 seconds at voltages between −80 mV and +60 mV in 20 mV steps (Kv2.1) or between −80 and +50 mV in 10 mV steps (Kv3.4), then held for 500 ms at −40 mV before returning to the holding potential. For assessment of block during wash-in of dabco derivatives at a single voltage, oocytes were held at −80 mV, and repetitively stepped to 0 mV for 2 s with an interpulse interval of 10 s or 60 s as indicated. A range of concentrations of dabco or dabco derivatives were washed in via the bath solution during repetitive single-voltage pulses (after an initial period of 5 pulses with control solution to ensure current stabilization) until equilibrium block was achieved, to establish dose-responses. Inhibited currents are compared to the current at the end of 5-pulse control period, thus some bar graphs show ‘control’ current values slightly less than 1, and with an error bar, to show how much currents deviate in the absence of drug. Washout was performed after the highest concentration of blocker was washed in. […]
To investigate the mechanism of Kv channel block or opening by didabco compounds, the current-voltage relationship (I/V curve) of Δ1-28 Kv3.4 channels expressed in Xenopus oocytes was assessed using TEVC recording in the absence and presence of a didabco opener (JC279.3a, the 10 CH2-group didabco from FIG. 3) or a didabco blocker (JC638.2a, the para didabco from FIG. 4).

Kv2.1-K356C = molecular target: T3, Kv2.1-K356C (Rattus norvegicus, UniProt P15387, K360C); test: Cysteine protection experiments, K356C variant of Kv2.1 in oocytes; details: K356C mutant
T3 construct: expressed in transfected cells; host or cells: Xenopus laevis oocytes (cRNA from pGA1)
T3 sequence (P15387 1-857 K360C): T1 sequence (P15387 1-857) with K360C
Text: as §1
Whole-cell two-electrode voltage-clamp (TEVC) recordings were performed on X laevis oocytes expressing cloned Kv2.1, Kv3.4 or Kv4.2 using a Warner OC-725C amplifier and pClamp9 (Axon Instruments, Foster City, Calif.) software. Oocytes were bathed in a small-volume Warner oocyte bath and viewed with a Fisher dissection microscope. Bath solution for whole-cell oocyte recordings was (in mM): 96 NaCl, 4 KCl, 0.7 MgCl2, 1 CaCl2, 10 HEPES (pH 7.4); whole-cell oocyte TEVC pipettes were of 0.2-2 M resistance when filled with 3 M KCl. Experiments were performed 24-48 hours after cRNA injection. For assessment of current-voltage relationships in the absence or presence of dabco derivatives, oocytes were held at −80 mV, stepped for 2 seconds at voltages between −80 mV and +60 mV in 20 mV steps (Kv2.1) or between −80 and +50 mV in 10 mV steps (Kv3.4), then held for 500 ms at −40 mV before returning to the holding potential. For assessment of block during wash-in of dabco derivatives at a single voltage, oocytes were held at −80 mV, and repetitively stepped to 0 mV for 2 s with an interpulse interval of 10 s or 60 s as indicated. A range of concentrations of dabco or dabco derivatives were washed in via the bath solution during repetitive single-voltage pulses (after an initial period of 5 pulses with control solution to ensure current stabilization) until equilibrium block was achieved, to establish dose-responses. Inhibited currents are compared to the current at the end of 5-pulse control period, thus some bar graphs show ‘control’ current values slightly less than 1, and with an error bar, to show how much currents deviate in the absence of drug. Washout was performed after the highest concentration of blocker was washed in. In cases where washout was achieved, only those recordings in which current returned to within 10% of original current level were used for construction of dose-response curves. For cysteine protection experiments using the K356C variant of Kv2.1, a dabco derivative (JC638.2a) was washed in to equilibrium block, followed by wash-in of a solution containing both JC638.2a and MTSET until no further changes in current were seen; following this the solution was washed out with standard bath solution. As controls for this protection analysis, JC638.2a or MTSET were washed in alone until equilibrium block, then washed out.

SMILES: CC[N+](CC)(CC)CC [TEA, tetraethylammonium, reference compound]
block on intracellular application ([1]; after 5 minutes): ~88% and 80% | block on intracellular application ([1]; time 0): ~85% and 70%

SMILES: C(CCCCC[N+]12CCN(CC1)CC2)CCCC[N+]12CCN(CC1)CC2 [JC279.3a, 1,10-[bis(4-aza-1-azoniabicyclo[2.2.2]octanyl)]decane]
block or opening of Δ1-28 Kv3.4 (Δ1-28 Kv3.4 channels): opener | voltage dependence of block or opening of Kv3.4 (Δ1-28 Kv3.4 channels; attenuated at more depolarized voltages): voltage-dependent

current inhibition, administered alone (Kv2.1-K356C): 56±3%
SMILES: C[N+](C)(C)CCSS(C)(=O)=O [MTSET, reference compound]
